# Test results from US20220273629A1, “METHODS OF TREATING DISORDERS ASSOCIATED WITH ELEVATED LEVELS OF ANTIBODIES THAT INTERACT WITH THE NMDA RECEPTOR” (Aptinyx Inc., priority 2019, published 2022).
# Columns and labels:
# [1] = molecular target: T1, NR2B surface expression in hNR1/PSD95/NR2B expressing HEK cells (Homo sapiens, UniProt Q13224); test: β-lactamase assay, restoration of NR2B surface expression after purified ANRE patient serum IgG; type: cell-based; settings: varying concentrations, FIG. 6A-6C
# T1 construct: expressed in transfected cells; transient β-lactamase-hGluN2B
# T1 sequence (Q13224 27-1484, other chains not shown): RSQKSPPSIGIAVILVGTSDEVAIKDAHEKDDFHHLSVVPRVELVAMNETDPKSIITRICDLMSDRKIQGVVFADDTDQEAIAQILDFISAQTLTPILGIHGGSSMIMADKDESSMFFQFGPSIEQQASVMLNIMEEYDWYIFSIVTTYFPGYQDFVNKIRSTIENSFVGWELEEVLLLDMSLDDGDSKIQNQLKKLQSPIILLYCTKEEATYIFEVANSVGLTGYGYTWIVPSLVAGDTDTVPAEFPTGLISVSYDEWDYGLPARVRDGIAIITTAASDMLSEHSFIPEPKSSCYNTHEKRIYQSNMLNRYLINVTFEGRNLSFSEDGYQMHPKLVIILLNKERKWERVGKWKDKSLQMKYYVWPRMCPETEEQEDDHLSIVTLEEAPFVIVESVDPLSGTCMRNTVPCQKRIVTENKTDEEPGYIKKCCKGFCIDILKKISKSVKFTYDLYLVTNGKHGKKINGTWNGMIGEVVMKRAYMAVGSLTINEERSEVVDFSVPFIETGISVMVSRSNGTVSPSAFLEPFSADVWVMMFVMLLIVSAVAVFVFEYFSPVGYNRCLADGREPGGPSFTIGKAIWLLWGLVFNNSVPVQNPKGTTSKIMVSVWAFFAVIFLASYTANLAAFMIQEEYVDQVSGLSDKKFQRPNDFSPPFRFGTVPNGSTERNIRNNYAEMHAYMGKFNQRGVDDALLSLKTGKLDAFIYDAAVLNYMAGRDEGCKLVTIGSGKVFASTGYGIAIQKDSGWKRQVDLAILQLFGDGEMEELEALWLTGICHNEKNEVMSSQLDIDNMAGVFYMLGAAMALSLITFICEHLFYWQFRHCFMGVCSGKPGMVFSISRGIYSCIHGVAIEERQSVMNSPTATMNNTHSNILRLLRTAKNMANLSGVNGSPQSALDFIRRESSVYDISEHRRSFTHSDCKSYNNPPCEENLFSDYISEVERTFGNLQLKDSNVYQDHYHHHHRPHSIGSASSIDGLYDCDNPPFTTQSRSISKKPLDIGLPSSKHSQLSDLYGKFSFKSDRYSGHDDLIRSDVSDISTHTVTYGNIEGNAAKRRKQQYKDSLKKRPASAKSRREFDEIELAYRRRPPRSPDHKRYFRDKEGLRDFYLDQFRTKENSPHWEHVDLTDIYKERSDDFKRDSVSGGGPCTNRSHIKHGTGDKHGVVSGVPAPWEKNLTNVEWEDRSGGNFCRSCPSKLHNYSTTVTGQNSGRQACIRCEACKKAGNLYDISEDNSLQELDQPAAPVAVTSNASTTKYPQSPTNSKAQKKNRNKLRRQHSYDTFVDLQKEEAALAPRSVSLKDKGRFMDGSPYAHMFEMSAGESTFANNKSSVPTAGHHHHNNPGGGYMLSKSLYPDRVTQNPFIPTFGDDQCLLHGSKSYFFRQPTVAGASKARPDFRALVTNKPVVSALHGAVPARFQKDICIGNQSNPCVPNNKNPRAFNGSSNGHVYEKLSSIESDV
# [2] = molecular target: T2, NR2B:R393A mutant receptors (Homo sapiens, UniProt Q13224, R393A); test: β-lactamase assay, NMDAR 2B trafficking in mutant R393A receptors; type: cell-based; settings: FIG. 6A-6C; for ability to restore cell surface NR2B expression in NR2B:R393A mutant following ANRE patient serum IgG: after exposure to ANRE patient serum IgG
# T2 construct: expressed in transfected cells; transient β-lactamase-hGluN2B R393A
# T2 sequence (Q13224 27-1484 R393A, other chains not shown): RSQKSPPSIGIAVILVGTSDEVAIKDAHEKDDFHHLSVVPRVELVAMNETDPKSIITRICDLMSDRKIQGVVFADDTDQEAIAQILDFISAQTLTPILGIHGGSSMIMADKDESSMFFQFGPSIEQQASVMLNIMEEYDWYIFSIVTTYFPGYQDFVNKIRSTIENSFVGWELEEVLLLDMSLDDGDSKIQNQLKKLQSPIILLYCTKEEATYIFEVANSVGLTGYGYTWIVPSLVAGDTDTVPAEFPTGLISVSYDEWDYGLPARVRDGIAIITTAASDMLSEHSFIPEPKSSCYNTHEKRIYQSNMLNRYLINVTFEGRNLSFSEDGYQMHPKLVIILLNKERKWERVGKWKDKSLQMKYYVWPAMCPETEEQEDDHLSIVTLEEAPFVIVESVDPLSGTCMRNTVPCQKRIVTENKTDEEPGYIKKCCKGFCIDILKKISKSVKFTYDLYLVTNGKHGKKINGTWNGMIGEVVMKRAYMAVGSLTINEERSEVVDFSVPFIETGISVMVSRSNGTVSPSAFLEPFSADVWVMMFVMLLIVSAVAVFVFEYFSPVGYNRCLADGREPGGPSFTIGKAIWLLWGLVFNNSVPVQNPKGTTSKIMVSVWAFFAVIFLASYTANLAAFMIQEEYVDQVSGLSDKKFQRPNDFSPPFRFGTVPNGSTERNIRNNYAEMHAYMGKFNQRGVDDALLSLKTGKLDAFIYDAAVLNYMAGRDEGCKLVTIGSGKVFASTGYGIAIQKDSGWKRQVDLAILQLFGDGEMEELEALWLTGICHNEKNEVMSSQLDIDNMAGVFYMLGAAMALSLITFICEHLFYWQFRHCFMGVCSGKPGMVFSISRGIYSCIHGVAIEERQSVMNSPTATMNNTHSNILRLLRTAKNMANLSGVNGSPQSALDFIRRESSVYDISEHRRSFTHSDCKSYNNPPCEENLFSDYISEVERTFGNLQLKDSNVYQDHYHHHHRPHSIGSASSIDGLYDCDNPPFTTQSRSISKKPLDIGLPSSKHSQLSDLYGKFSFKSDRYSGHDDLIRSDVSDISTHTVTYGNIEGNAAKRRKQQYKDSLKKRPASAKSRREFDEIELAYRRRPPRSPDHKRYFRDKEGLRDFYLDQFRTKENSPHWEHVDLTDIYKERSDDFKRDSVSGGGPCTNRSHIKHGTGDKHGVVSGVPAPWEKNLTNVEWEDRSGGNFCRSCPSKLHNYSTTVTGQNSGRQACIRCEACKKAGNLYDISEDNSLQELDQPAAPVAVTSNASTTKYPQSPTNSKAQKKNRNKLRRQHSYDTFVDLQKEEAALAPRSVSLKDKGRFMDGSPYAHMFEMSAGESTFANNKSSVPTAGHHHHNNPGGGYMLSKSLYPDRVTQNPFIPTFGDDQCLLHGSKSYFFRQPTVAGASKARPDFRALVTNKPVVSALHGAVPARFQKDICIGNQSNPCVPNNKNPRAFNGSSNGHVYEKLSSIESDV
# Procedure: (§1) Un-transfected (Untfx) cells were used as a negative control for surface β-lactamase activity. Human IgG (Sigma-Aldrich) at a concentration of 0.5 mg/ml was used as a negative control for non-specific receptor internalization.
# (§2) HEK293 cells stably expressing human GluN1 and PSD-95 were transiently transfected with hGluN2B tagged at the N-terminus with the β-lactamase enzyme using X-tremeGENE9 transfection reagent (Sigma-Aldrich). Transfected cultures were maintained in media containing ketamine (0.18 mg/ml) to minimize excitotoxicity. Twenty-four hours after transfection, cells were re-plated into poly-d-lysine coated 96-well plates at a concentration of 30,000 cells/well. The following day, cells were washed with buffer (HBSS, 10 mM HEPES, […]) and then incubated with a 1:50 dilution of purified patient IgG for 45 min at 37° C. The cells were washed once with buffer and then incubated for 15 min at 37° C. with buffer ±each of compound A, B and C. Nitrocefin in buffer (100 mM final; Cayman Chemical) ±each of compound A, B and C was added to each well and absorbance at 486 nm was measured every minute for 30 min at 37° C. in a plate reader. Un-transfected (Untfx) cells were used as a negative control for surface β-lactamase activity. Human IgG (Sigma-Aldrich) at a concentration of 0.5 mg/ml was used as a negative control for non-specific receptor internalization. Slopes of optical density are graphed as fold change over vehicle, mean ±SEM (n=8-12). Statistics were determined by one-way ANOVA compared to antibody only (Ab).
# [3] = molecular target: T1, NR2B surface expression in hNR1/PSD95/NR2B expressing HEK cells; test: β-lactamase assay, restoration of NR2B surface expression after ANRE patient CSF; type: cell-based; settings: after CSF (1:10 dilution) from ANRE patients N1, N2, N3; FIG. 2
# Procedure: In this example hNR1/PSD95/NR2B expressing HEK cells tagged with a β-lactamase enzyme at the N-terminus of NR2B are incubated with CSF (1:10 dilution) from each of three individual ANRE patients (N1, N2, and N3).
# as §2, with “The cells were washed once with buffer and then incubated for 15 min at 37° C. with buffer ±each of compound A, B and C. Nitrocefin in buffer (100 mM final; Cayman Chemical) ±each of compound A, B and C was added to each well and absorbance at 486 nm was measured every minute for 30 min at 37° C. in a plate reader.” left out
# [4] = molecular target: T1, NR2B surface expression in hNR1/PSD95/NR2B expressing HEK cells; test: β-lactamase assay, NR2B surface expression, compound alone (absence of Ab), wild-type; type: cell-based; settings: for surface NR2B expression in wild-type NR2B receptors relative to untreated vehicle controls: no antibody, varying concentrations, FIG. 6A-6C
# Procedure: (§3) Un-transfected (Untfx) cells were used as a negative control for surface β-lactamase activity.
# (§4) hNR1/PSD95/NR2B-expressing HEK cells tagged with a β-lactamase enzyme at the N-terminus of NR2B are incubated with a 1:50 dilution of purified patient serum IgG for 45 min. The cells are washed with buffer to remove antibodies and then incubated for 15 min in the presence or absence of each of compounds A, B, or C at concentrations of 10 fM, 1 pM, 100 pM and 10 nM respectively. After said time, the membrane impermeable substrate nitrocefin and ±each of compounds A, B, and C are added. The NR2B N-terminal β-lactamase cleaves nitrocefin, resulting in a change of absorbance to 486 nm. The absorbance at 486 nm is measured every minute for 30 min.
# as §1, §2
# [5] = molecular target: T1, NR2B surface expression in hNR1/PSD95/NR2B expressing HEK cells; test: β-lactamase assay, restoration of NR2B surface expression after purified ANRE patient serum IgG; type: cell-based; settings: 45 min purified patient serum IgG 1:50, then 15 min compound at 10 fM, 1 pM, 100 pM, 10 nM; FIG. 1 / FIG. 3
# Procedure: as §3, §4
# Slopes of optical density are graphed as fold change over the vehicle. N=8; Statistics were determined by one-way ANOVA compared to antibody only (Ab). * p≤0.05, ** p≤0.01, *** p≤0.001, **** p≤0.0001 (FIG. 1).
# as §1
# hNR1/PSD95/NR2B expressing HEK cells tagged with a β-lactamase enzyme at the N-terminus of NR2B are incubated with purified patient serum IgG (1:50 dilution) for 45 min. The cells are washed to remove antibodies and then incubated for 15 min in the presence or absence of each of compounds A, B, C, D, E, F, G, and H at concentrations of 10 fM, 1 pM, 100 pM and 10 nM respectively. After said time, nitrocefin in buffer and ±each of compounds A-H are added and the absorbance at 486 nm is measured every minute for 30 min.
# Slopes of optical density are graphed as fold change over the vehicle. N=8-12; Statistics were determined by one-way ANOVA compared to antibody only (Ab). * p≤0.05, ** p≤0.01, *** p≤0.001, **** p≤0.0001 (FIG. 3).
# as §2
# [6] = test system: Schaffer collateral-CA1 synapses in hippocampal slices; test: Hippocampal slice LTP (fEPSP slope) with focal NR1 antibody application; type: cell-based, rat; settings: 500 nM bath-applied, FIG. 5B
# Source text: Two extracellular recording patch pipettes were placed at equal distances (˜500 μm) on either side of a single bipolar stainless steel stimulating electrode (Frederick Haer Inc.). A single test stimulus was applied each 30 seconds, to evoke field excitatory postsynaptic potentials (fEPSPs) recorded simultaneously at the Control and Antibody (Ab) recording sites. […]
# LTP was induced by the stimulation of Schaffer collateral axons with high frequency theta burst stimulus trains. The fEPSP slope was measured before and after the induction of LTP in hippocampal slices treated with control, control +NR1Ab, Compound A, or Compound A +NR1Ab.
# The experimental protocol to test the effects of focal application of NR1 antibodies on synaptic transmission and long-term potentiation (LTP) of synaptic strength at Schaffer collateral-CA1 synapses in hippocampal slices in vitro is illustrated in FIG. 5A below. […] A single test stimulus was applied each 30 seconds, to evoke field excitatory postsynaptic potentials (fEPSPs) recorded simultaneously at the Control and Antibody (Ab) recording sites. […] Statistics were determined by Student's t-test for unpaired data.
SMILES,"restoration of NR2B surface expression to ""No Ab"" control level, wild-type NR2B (Example 6) [1]",ability to restore cell surface NR2B expression in NR2B:R393A mutant [2],ability to restore cell surface NR2B expression in NR2B:R393A mutant following ANRE patient serum IgG [2],restoration of cell surface NR2B expression to vehicle levels [3],surface NR2B expression in wild-type NR2B receptors relative to untreated vehicle controls [4],"restoration of NR2B surface expression to ""No Ab"" control level [5]","increase in cell surface NR2B expression ([4]; 1 pM, in the absence of Ab, positive control, wild-type) [%]",rescue of Schaffer collateral-CA1 LTP from acute NMDAR1 antibody effects ([6]; NR1 antibody 1:20 dilution),"magnitude of LTP relative to control ([6]; after high frequency stimulation, no antibody)"
CC(C)C(=O)N1CCC[C@@]12CN([C@H](C(N)=O)[C@@H](C)O)C2=O [B],restore NR2B surface expression to levels observed in the “No Ab” control,abolishes the ability,abolishes the ability,restored cell surface NR2B expression to vehicle levels,increase surface NR2B expression,restore NR2B surface expression to levels observed in the “No Ab” control,–,–,–
CC(C)C(=O)N1CCC[C@]12CN([C@H](C(N)=O)[C@@H](C)O)C2=O [Compound A],restore NR2B surface expression to levels observed in the “No Ab” control,abolishes the ability,abolishes the ability,restored cell surface NR2B expression to vehicle levels,increase surface NR2B expression,restore NR2B surface expression to levels observed in the “No Ab” control,~20,rescues Schaffer collateral-CA1 LTP,increased the magnitude of LTP
COc1ccc(CN2C[C@]3(CCNC(=O)C3)C2=O)cc1 [Compound D],–,–,–,–,–,failed to restore NR2B surface expression,–,–,–
COc1ccc(CN2C[C@@]3(CCNC(=O)C3)C2=O)cc1 [C],restore NR2B surface expression to levels observed in the “No Ab” control,abolishes the ability,abolishes the ability,restored cell surface NR2B expression to vehicle levels,increase surface NR2B expression,restore NR2B surface expression to levels observed in the “No Ab” control,–,–,–
CC(C)CN1CCC[C@]12CN([C@H](C(N)=O)[C@@H](C)O)C2=O [E],–,–,–,–,–,failed to restore NR2B surface expression,–,–,–
CC(C)CN1[C@@]2(CC[C@@]13CNC3=O)CNC2=O [G],–,–,–,–,–,failed to restore NR2B surface expression,–,–,–
CC(C)CN1[C@]2(CC[C@]13CNC3=O)CNC2=O [H],–,–,–,–,–,failed to restore NR2B surface expression,–,–,–
CC(C)CN1CCC[C@@]12CN([C@H](C(N)=O)[C@@H](C)O)C2=O [F],–,–,–,–,–,failed to restore NR2B surface expression,–,–,–
